The record followed here is patent US20240124427A1, “HYDROXYHETEROCYCLOALKANE-CARBAMOYL DERIVATIVES” (Idorsia Pharmaceuticals Ltd, priority 2021, published 2024).

As a reminder, the IC50 is the concentration that inhibits the measured activity by half.

Chain of human Gal-3 (hGal-3) (P17931 whole entry): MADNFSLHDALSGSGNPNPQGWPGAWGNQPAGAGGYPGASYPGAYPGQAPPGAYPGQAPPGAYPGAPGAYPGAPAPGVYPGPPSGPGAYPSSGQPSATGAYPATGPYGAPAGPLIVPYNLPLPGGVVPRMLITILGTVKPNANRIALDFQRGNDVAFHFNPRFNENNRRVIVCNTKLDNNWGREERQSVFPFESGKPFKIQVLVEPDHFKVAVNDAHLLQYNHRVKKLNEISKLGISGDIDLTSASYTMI

One test concerns the target human Gal-3 (hGal-3) (Homo sapiens (Human), UniProt P17931). Kind of test: Competitive binding assay: biotinylated hGal-3 binding to microplate-adsorbed asialofetuin (ASF).
Settings: not given
The gist of the method: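 Biotinylated human Gal-3 binding to plate-adsorbed asialofetuin, competed by compound, 3 h at 4 °C. Bound protein detected with streptavidin-peroxidase (1 h, 4 °C) and ABTS substrate. IC50 reported as mean of several measurements.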
With `CO[C@@H]1[C@@H](n2cc(-c3cc(F)c(F)c(F)c3)nn2)[C@@H](O)[C@@H](CO)O[C@H]1C(=O)N(c1cc(Br)cc(Br)c1)[C@H]1CN(C(C)=O)C[C@@H]1O` [Example 84], the 50% inhibitory concentration (IC50) was determined as 0.07 µM.
With `CO[C@@H]1[C@@H](n2cc(-c3cc(F)c(Cl)c(F)c3)nn2)[C@@H](O)[C@@H](CO)O[C@H]1C(=O)N(c1cc(Cl)cc(Cl)c1)[C@@H]1CN(C(C)=O)C[C@H]1O` [Example 86], the IC50 is 0.064 µM.
`CO[C@@H]1[C@@H](n2cc(-c3cc(F)c(C)c(F)c3)nn2)[C@@H](O)[C@@H](CO)O[C@H]1C(=O)N(c1cc(C)cc(Br)c1)[C@H]1CNC[C@@H]1O` [Example 70] showed an IC50 of 0.056 µM.
On the same count and under the same terms, the result for `CO[C@@H]1[C@@H](n2cc(-c3cc(F)c(C)c(F)c3)nn2)[C@@H](O)[C@@H](CO)O[C@H]1C(=O)N(c1cc(Cl)cc(Cl)c1)[C@@H]1CN(C(C)=O)C[C@H]1O` [Example 85] reads 0.327 µM.

Still in this test, the particulars now being: Activity on hGal-3; mean values of several measurements; mixture of diastereomers measured where not separated.
As for `CO[C@@H]1[C@@H](n2cc(-c3cc(F)c(F)c(F)c3)nn2)[C@@H](O)[C@@H](CO)O[C@H]1C(=O)N(c1cc(C)cc(C#N)c1)[C@@H]1COC[C@H]1O` [Example 39, (2R,3R,4S,5R,6R)-N-(3-cyano-5-methylphenyl)-5-hydroxy-6-(hydroxymethyl)-N-((3R,4S)-4-hydroxytetrahydrofuran-3-yl)-3-methoxy-4-(4-(3,4,5-trifluorophenyl)-1H-1,2,3-triazol-1-yl)tetrahydro-2H-pyran-2-carboxamide], the IC50 amounted to 0.069 µM.
Consider `CO[C@@H]1[C@@H](n2cc(-c3cc(F)c(F)c(F)c3)nn2)[C@@H](O)[C@@H](CO)O[C@H]1C(=O)N(c1cc(C)cc(Br)c1)[C@@H]1CN(C=O)C[C@H]1O` [Example 94, (2R,3R,4S,5R,6R)-N-(3-bromo-5-methylphenyl)-N-((3R,4R)-1-formyl-4-hydroxypyrrolidin-3-yl)-5-hydroxy-6-(hydroxymethyl)-3-methoxy-4-(4-(3,4,5-trifluorophenyl)-1H-1,2,3-triazol-1-yl)tetrahydro-2H-pyran-2-carboxamide], for which the IC50 came to 0.086 µM.
For the molecule `CO[C@@H]1[C@@H](n2cc(-c3cc(F)c(F)c(F)c3)nn2)[C@@H](O)[C@@H](CO)O[C@H]1C(=O)N(c1cc(C)cc(Br)c1)[C@@H]1COCC[C@H]1O` [Example 108, (2R,3R,4S,5R,6R)-N-(3-bromo-5-methylphenyl)-5-hydroxy-6-(hydroxymethyl)-N-((3R,4R)-4-hydroxytetrahydro-2H-pyran-3-yl)-3-methoxy-4-(4-(3,4,5-trifluorophenyl)-1H-1,2,3-triazol-1-yl)tetrahydro-2H-pyran-2-carboxamide], the half-maximal inhibitory concentration (IC50) stood at 0.315 µM.
Take `CO[C@@H]1[C@@H](n2cc(-c3cc(F)c(F)c(F)c3)nn2)[C@@H](O)[C@@H](CO)O[C@H]1C(=O)N(c1cc(F)cc(C#N)c1)[C@H]1COC[C@@H]1O` [Example 11, (2R,3R,4S,5R,6R)-N-(3-cyano-5-fluorophenyl)-5-hydroxy-6-(hydroxymethyl)-N-((3S,4R)-4-hydroxytetrahydrofuran-3-yl)-3-methoxy-4-(4-(3,4,5-trifluorophenyl)-1H-1,2,3-triazol-1-yl)tetrahydro-2H-pyran-2-carboxamide]: the concentration for half-maximal inhibition (IC50) is 0.124 µM.
`CO[C@@H]1[C@@H](n2cc(-c3cc(F)c(F)c(F)c3)nn2)[C@@H](O)[C@@H](CO)O[C@H]1C(=O)N(c1cc(F)cc(C#N)c1)[C@@H]1COC[C@H]1O` [Example 40, (2R,3R,4S,5R,6R)-N-(3-cyano-5-fluorophenyl)-5-hydroxy-6-(hydroxymethyl)-N-((3R,4S)-4-hydroxytetrahydrofuran-3-yl)-3-methoxy-4-(4-(3,4,5-trifluorophenyl)-1H-1,2,3-triazol-1-yl)tetrahydro-2H-pyran-2-carboxamide]: the half-inhibitory concentration (IC50) is 0.145 µM.
On to `CO[C@@H]1[C@@H](n2cc(-c3cc(F)c(Cl)c(F)c3)nn2)[C@@H](O)[C@@H](CO)O[C@H]1C(=O)N(c1cc(Cl)cc(Cl)c1)[C@H]1COC[C@@H]1O` [Example 22, (2R,3R,4S,5R,6R)-4-(4-(4-chloro-3,5-difluorophenyl)-1H-1,2,3-triazol-1-yl)-N-(3,5-dichlorophenyl)-5-hydroxy-6-(hydroxymethyl)-N-((3S,4R)-4-hydroxytetrahydrofuran-3-yl)-3-methoxytetrahydro-2H-pyran-2-carboxamide], for which the IC50 amounted to 0.05 µM.
Consider `CO[C@@H]1[C@@H](n2cc(-c3cc(F)c(F)c(F)c3)nn2)[C@@H](O)[C@@H](CO)O[C@H]1C(=O)N(c1cc(Cl)cc(Cl)c1)[C@@H]1CNC[C@H]1O` [Example 66, (2R,3R,4S,5R,6R)-N-(3,5-dichlorophenyl)-5-hydroxy-6-(hydroxymethyl)-N-((3R,4R)-4-hydroxypyrrolidin-3-yl)-3-methoxy-4-(4-(3,4,5-trifluorophenyl)-1H-1,2,3-triazol-1-yl)tetrahydro-2H-pyran-2-carboxamide], for which the IC50 came to 0.182 µM.
The same measure, in the same setting: the result for `CO[C@@H]1[C@@H](n2cc(-c3cc(F)c(C)c(F)c3)nn2)[C@@H](O)[C@@H](CO)O[C@H]1C(=O)N(c1cc(C)cc(Br)c1)[C@@H]1CN(C(C)=O)C[C@H]1O` [Example 82, (2R,3R,4S,5R,6R)-N-((3R,4R)-1-acetyl-4-hydroxypyrrolidin-3-yl)-N-(3-bromo-5-methylphenyl)-4-(4-(3,5-difluoro-4-methylphenyl)-1H-1,2,3-triazol-1-yl)-5-hydroxy-6-(hydroxymethyl)-3-methoxytetrahydro-2H-pyran-2-carboxamide] reads 0.045 µM.
With `CO[C@@H]1[C@@H](n2cc(-c3ccc(Cl)c(Cl)c3)nn2)[C@@H](O)[C@@H](CO)O[C@H]1C(=O)N(c1cc(Br)cc(Br)c1)[C@@H]1COC[C@H]1O` [Example 56, (2R,3R,4S,5R,6R)-N-(3,5-dibromophenyl)-4-(4-(3,4-dichlorophenyl)-1H-1,2,3-triazol-1-yl)-5-hydroxy-6-(hydroxymethyl)-N-((3R,4S)-4-hydroxytetrahydrofuran-3-yl)-3-methoxytetrahydro-2H-pyran-2-carboxamide], the 50% inhibitory concentration (IC50) turned out to be 0.222 µM.
Consider `CO[C@@H]1[C@@H](n2cc(-c3ccc(C)c(F)c3F)nn2)[C@@H](O)[C@@H](CO)O[C@H]1C(=O)N(c1cc(C)cc(Br)c1)[C@@H]1CNC[C@H]1O` [Example 69, (2R,3R,4S,5R,6R)-N-(3-bromo-5-methylphenyl)-4-(4-(2,3-difluoro-4-methylphenyl)-1H-1,2,3-triazol-1-yl)-5-hydroxy-6-(hydroxymethyl)-N-((3R,4R)-4-hydroxypyrrolidin-3-yl)-3-methoxytetrahydro-2H-pyran-2-carboxamide], for which the IC50 came out at 0.038 µM.
`CO[C@@H]1[C@@H](n2cc(-c3ccc(Cl)c(Cl)c3)nn2)[C@@H](O)[C@@H](CO)O[C@H]1C(=O)N(c1cc(Cl)cc(Cl)c1)[C@@H]1COC[C@H]1O` [Example 55, (2R,3R,4S,5R,6R)-N-(3,5-dichlorophenyl)-4-(4-(3,4-dichlorophenyl)-1H-1,2,3-triazol-1-yl)-5-hydroxy-6-(hydroxymethyl)-N-((3R,4S)-4-hydroxytetrahydrofuran-3-yl)-3-methoxytetrahydro-2H-pyran-2-carboxamide]: the half-inhibitory concentration (IC50) was determined as 0.164 µM.
The same measure, in the same setting: the result for `CO[C@@H]1[C@@H](n2cc(-c3ccc(Br)c(F)c3F)nn2)[C@@H](O)[C@@H](CO)O[C@H]1C(=O)N(c1cc(Br)cc(C#N)c1)[C@@H]1COC[C@H]1O` [Example 42, (2R,3R,4S,5R,6R)-4-(4-(4-bromo-2,3-difluorophenyl)-1H-1,2,3-triazol-1-yl)-N-(3-bromo-5-cyanophenyl)-5-hydroxy-6-(hydroxymethyl)-N-((3R,4S)-4-hydroxytetrahydrofuran-3-yl)-3-methoxytetrahydro-2H-pyran-2-carboxamide] reads 0.037 µM; that for `CO[C@@H]1[C@@H](n2cc(-c3cc(F)c(F)c(F)c3)nn2)[C@@H](O)[C@@H](CO)O[C@H]1C(=O)N(c1cc(C)cc(Br)c1)[C@H]1COCC[C@@H]1O` [Example 106, (2R,3R,4S,5R,6R)-N-(3-bromo-5-methylphenyl)-5-hydroxy-6-(hydroxymethyl)-N-((3S,4S)-4-hydroxytetrahydro-2H-pyran-3-yl)-3-methoxy-4-(4-(3,4,5-trifluorophenyl)-1H-1,2,3-triazol-1-yl)tetrahydro-2H-pyran-2-carboxamide], 0.013 µM; that for `CO[C@@H]1[C@@H](n2cc(-c3cc(F)c(F)c(F)c3)nn2)[C@@H](O)[C@@H](CO)O[C@H]1C(=O)N(c1cc(Br)cc(C#N)c1)[C@@H]1CN(C(C)=O)C[C@H]1O` [Example 78, (2R,3R,4S,5R,6R)-N-((3R,4R)-1-acetyl-4-hydroxypyrrolidin-3-yl)-N-(3-bromo-5-cyanophenyl)-5-hydroxy-6-(hydroxymethyl)-3-methoxy-4-(4-(3,4,5-trifluorophenyl)-1H-1,2,3-triazol-1-yl)tetrahydro-2H-pyran-2-carboxamide], 0.071 µM.
On the same count and under the same terms, with `CO[C@@H]1[C@@H](n2cc(-c3cc(F)c(C)c(F)c3)nn2)[C@@H](O)[C@@H](CO)O[C@H]1C(=O)N(c1cc(Br)cc(Br)c1)[C@@H]1COC[C@H]1O` [Example 45, (2R,3R,4S,5R,6R)-N-(3,5-dibromophenyl)-4-(4-(3,5-difluoro-4-methylphenyl)-1H-1,2,3-triazol-1-yl)-5-hydroxy-6-(hydroxymethyl)-N-((3R,4S)-4-hydroxytetrahydrofuran-3-yl)-3-methoxytetrahydro-2H-pyran-2-carboxamide] the figure was 0.059 µM; with `CO[C@@H]1[C@@H](n2cc(-c3cc(F)c(F)c(F)c3)nn2)[C@@H](O)[C@@H](CO)O[C@H]1C(=O)N(c1cc(C)cc(Br)c1)[C@H]1CNC[C@@H]1O` [Example 61, (2R,3R,4S,5R,6R)-N-(3-bromo-5-methylphenyl)-5-hydroxy-6-(hydroxymethyl)-N-((3S,4S)-4-hydroxypyrrolidin-3-yl)-3-methoxy-4-(4-(3,4,5-trifluorophenyl)-1H-1,2,3-triazol-1-yl)tetrahydro-2H-pyran-2-carboxamide], 0.026 µM.

In a further test the target is human Gal-1 (hGal-1) (Homo sapiens, UniProt P09382).
Chain of human Gal-1 (hGal-1) (P09382 2-135 limits assumed): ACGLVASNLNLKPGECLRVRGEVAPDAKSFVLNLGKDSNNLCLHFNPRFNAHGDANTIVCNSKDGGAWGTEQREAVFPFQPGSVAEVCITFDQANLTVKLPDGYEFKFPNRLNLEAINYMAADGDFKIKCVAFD
Experiment: not given
Type of test: binding.
Settings: not given
In turn, `CO[C@@H]1[C@@H](n2cc(-c3cc(F)c(F)c(F)c3)nn2)[C@@H](O)[C@@H](CO)O[C@H]1C(=O)N(c1cc(Br)cc(Br)c1)[C@H]1CN(C(C)=O)C[C@@H]1O` [Example 84] yielded an IC50 of 1.21 µM.
On to `CO[C@@H]1[C@@H](n2cc(-c3cc(F)c(Cl)c(F)c3)nn2)[C@@H](O)[C@@H](CO)O[C@H]1C(=O)N(c1cc(Cl)cc(Cl)c1)[C@@H]1CN(C(C)=O)C[C@H]1O` [Example 86], for which inhibition was half-maximal at 1.78 µM (IC50).
The molecule `CO[C@@H]1[C@@H](n2cc(-c3cc(F)c(C)c(F)c3)nn2)[C@@H](O)[C@@H](CO)O[C@H]1C(=O)N(c1cc(C)cc(Br)c1)[C@H]1CNC[C@@H]1O` [Example 70] had a 50% inhibitory concentration (IC50) of 1.8 µM.
With `CO[C@@H]1[C@@H](n2cc(-c3cc(F)c(C)c(F)c3)nn2)[C@@H](O)[C@@H](CO)O[C@H]1C(=O)N(c1cc(Cl)cc(Cl)c1)[C@@H]1CN(C(C)=O)C[C@H]1O` [Example 85], inhibition was half-maximal at 13.4 µM (IC50).
